In brackets after ≈: the same amount, converted by molar mass.
Tests used:
[1] = test system: Human colon cancer HT29 cells; assay: In vivo pharmaceutical efficiency comparison of SCP201 with free CPT11, HT29 tumor; design: species or system immunodeficiency mice
Description: (§1) Human colon cancer HT29 cells were implanted subcutaneously at the dorsal muscles of immunodeficiency mice. […] The administration frequency was twice a week and five times in total. The tumor size and weight of each mouse was monitored. The tumor size was measured and calculated according to the formula V=1/2 ab^2, wherein V is the volume of tumor, a is the longest diameter of the tumor, and b is the shortest diameter of the tumor. Human colon cancer Colo205 cells were also tested by the same method described above, except that the mice were divided into 6 groups.

RPMI2650 = assay: MTT assay RPMI2650; assay type: cell-based, human; conditions: Nasalseptum, RPMI2650, 72 hours
Description: (§2) Various human cancer lines, such as A549, AS2, and H460, were implanted onto multi-well plates and Dulbecco's Modified Eagle Media (high glucose) with 10% of fetal bovine serum and 1% of P/S being added to each well. […] Then a 20 μL of 0.5 mg/ml MTT (3-(4,5-dimethylthiazol-2-yl)-2,5-diphenyltetrazolium bromide) solution was added to each well to start the reaction. After 2 hours, the suspension of each well was removed and DMSO was added into the well to dissolve formazan, which was formed during the reaction. The living cell concentration was then obtained by analyzing the OD570 and OD600 data of each well.

SCC-25 = assay: MTT assay SCC-25; assay type: cell-based, human; conditions: Tongue, SCC-25, 72 hours
Description: as §2

[2] = test system: Human colon cancer HT29 cells; assay: In vivo pharmaceutical efficiency comparison of CCP201 with free CPT11, HT29 tumor; design: species or system immunodeficiency mice
Description: Human colon cancer HT29 cells were implanted subcutaneously at the dorsal muscles of immunodeficiency mice. […] The administration frequency was twice a week and five times in total. The tumor size and weight of each mouse was monitored. The tumor size was measured and calculated according to the formula V=½ ab^2, wherein V is the volume of the tumor, a is the longest diameter of the tumor, and b is the shortest diameter of the tumor.

AS2 = assay: MTT assay AS2; assay type: cell-based, human; conditions: Lung, AS2, 72 hours
Description: as §2

HT29 = assay: MTT assay HT29; assay type: cell-based, human; conditions: Colorectal, HT29, 72 hours
Description: as §2

A549 = assay: MTT assay A549; assay type: cell-based, human; conditions: Lung, A549, 72 hours
Description: as §2

OVCAR-3 = assay: MTT assay OVCAR-3; assay type: cell-based, human; conditions: Ovarian, OVCAR-3, 72 hours
Description: as §2

Colo 205 = assay: MTT assay Colo 205; assay type: cell-based, human; conditions: Colorectal, Colo 205, 72 hours
Description: as §2

H460 = assay: MTT assay H460; assay type: cell-based, human; conditions: Lung, H460, 72 hours
Description: as §2

[3] = test system: Human colon cancer Colo205 cells; assay: In vivo pharmaceutical efficiency comparison of SCP201 with free CPT11, Colo205 tumor; design: species or system immunodeficiency mice
Description: as §1

[4] = dose 10 mg/kg, total dose 50 mg/kg
[5] = dose 40 mg/kg, total dose 200 mg/kg

SMILES: CCc1c2c(nc3ccc(OC(=O)N4CCC(N5CCCCC5)CC4)cc13)-c1cc3c(c(=O)n1C2)COC(=O)[C@]3(O)CC [CPT11, 7-ethyl-10-[4-(1-piperidino)-1-piperidono]carbonyloxy camptothecin]
- Tumor Size (mm^3) Vol. ([1]; day 0, 10 mg/kg): 142.8 mm^3
- Tumor Size (mm^3) Vol. ([1]; day 3, 10 mg/kg): 227.8 mm^3
- Tumor Size (mm^3) Vol. ([1]; day 6, 10 mg/kg): 292.7 mm^3
- Tumor Size (mm^3) Vol. ([1]; day 9, 10 mg/kg): 384.2 mm^3
- Tumor Size (mm^3) Vol. ([1]; day 12, 10 mg/kg): 492.0 mm^3
- Tumor Size (mm^3) Vol. ([1]; day 15, 10 mg/kg): 666.0 mm^3
- Tumor Size (mm^3) Vol. ([1]; day 18, 10 mg/kg): 853.5 mm^3
- Tumor Size (mm^3) Vol. ([1]; day 21, 10 mg/kg): 997.7 mm^3
- Tumor Size (mm^3) Vol. ([1]; day 24, 10 mg/kg): 1308.5 mm^3
- Tumor Size (mm^3) Vol. ([1]; day 27, 10 mg/kg): 1732.2 mm^3
- Maximum weight loss [1, 4]: 27 days
- Maximum weight loss % [1, 4]: 9.4%
- TIR % (day 21) [1, 4]: 23%
- IC50 (RPMI2650): 1470 ± 260 µg/mL (≈ 2.51 mM)
- IC50 (SCC-25): 12350 ± 1160 µg/mL (≈ 21.1 mM)
- Tumor Size (mm^3) Vol. ([2]; day 0, 10 mg/kg): 469.6 mm^3
- Tumor Size (mm^3) Vol. ([2]; day 4, 10 mg/kg): 745.8 mm^3
- Tumor Size (mm^3) Vol. ([2]; day 8, 10 mg/kg): 723.4 mm^3
- Tumor Size (mm^3) Vol. ([2]; day 11, 10 mg/kg): 740.8 mm^3
- Tumor Size (mm^3) Vol. ([2]; day 13, 10 mg/kg): 786.0 mm^3
- Tumor Size (mm^3) Vol. ([2]; day 15, 10 mg/kg): 757.5 mm^3
- Tumor Size (mm^3) Vol. ([2]; day 18, 10 mg/kg): 879.8 mm^3
- Tumor Size (mm^3) Vol. ([2]; day 20, 10 mg/kg): 902.7 mm^3
- Tumor Size (mm^3) Vol. ([2]; day 22, 10 mg/kg): 927.3 mm^3
- Tumor Size (mm^3) Vol. ([2]; day 27, 10 mg/kg): 1217.6 mm^3
- Maximum weight loss [2, 4]: 27 days
- Maximum weight loss % [2, 4]: 17.3%
- TIR % (day 21) [2, 4]: 35%
- IC50 (AS2): 4200 ± 480 µg/mL (≈ 7.16 mM)
- IC50 (HT29): 1900 µg/mL (≈ 3.24 mM)
- IC50 (A549): 13340 ± 1330 µg/mL (≈ 22.7 mM)
- IC50 (OVCAR-3): 16750 ± 1430 µg/mL (≈ 28.6 mM)
- IC50 (Colo 205): 6840 ± 990 µg/mL (≈ 11.7 mM)
- IC50 (H460): 1890 ± 140 µg/mL (≈ 3.22 mM)
- Tumor Size (mm^3) Vol. ([3]; day 0, 40 mg/kg): 152.1 mm^3
- Tumor Size (mm^3) Vol. ([3]; day 1, 10 mg/kg): 175.1 mm^3
- Tumor Size (mm^3) Vol. ([3]; day 1, 40 mg/kg): 184.6 mm^3
- Tumor Size (mm^3) Vol. ([3]; day 3, 10 mg/kg): 192.0 mm^3
- Tumor Size (mm^3) Vol. ([3]; day 3, 40 mg/kg): 239.3 mm^3
- Tumor Size (mm^3) Vol. ([3]; day 6, 10 mg/kg): 215.0 mm^3
- Tumor Size (mm^3) Vol. ([3]; day 6, 40 mg/kg): 215.0 mm^3
- Tumor Size (mm^3) Vol. ([3]; day 8, 10 mg/kg): 251.2 mm^3
- Tumor Size (mm^3) Vol. ([3]; day 8, 40 mg/kg): 184.7 mm^3
- Tumor Size (mm^3) Vol. ([3]; day 10, 10 mg/kg): 262.1 mm^3
- Tumor Size (mm^3) Vol. ([3]; day 10, 40 mg/kg): 161.7 mm^3
- Tumor Size (mm^3) Vol. ([3]; day 13, 10 mg/kg): 263.5 mm^3
- Tumor Size (mm^3) Vol. ([3]; day 13, 40 mg/kg): 110.2 mm^3
- Tumor Size (mm^3) Vol. ([3]; day 15, 10 mg/kg): 274.1 mm^3
- Tumor Size (mm^3) Vol. ([3]; day 15, 40 mg/kg): 70.9 mm^3
- Tumor Size (mm^3) Vol. ([3]; day 17, 10 mg/kg): 293.7 mm^3
- Tumor Size (mm^3) Vol. ([3]; day 17, 40 mg/kg): 59.1 mm^3
- Tumor Size (mm^3) Vol. ([3]; day 20, 10 mg/kg): 301.4 mm^3
- Tumor Size (mm^3) Vol. ([3]; day 20, 40 mg/kg): 37.8 mm^3
- Maximum weight loss % [3, 4]: 4.2%
- Maximum weight loss (day) [3, 4]: (18) day
- TIR % (day 20) [3, 4]: 61%
- Maximum weight loss % [3, 5]: 3.7%
- Maximum weight loss (day) [3, 5]: (8) day
- TIR % (day 20) [3, 5]: 95%
